{"source": "patent US11209437B2", "about": "“Fluorescent probe and preparation method and use thereof” (Fluorescence Diagnosis (shanghai) Biotech Company Ltd., priority 2016, dated 2021)", "key": {"[1]": {"assay": "Viscosity responsiveness: fluorescence emission spectra of probes in glycerol and methanol", "assay_type": "physicochemical", "method_in_brief": "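Each probe, from a 1×10^−2 M DMSO stock, was diluted to a final 1×10^−5 M in glycerol and in methanol. Fluorescence emission spectra were then recorded under identical conditions at each probe's maximum excitation wavelength.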"}, "[2]": {"assay": "Fluorescence of free probe prior to binding to a protein tag", "assay_type": "physicochemical"}, "SNAP protein tags": {"target": "T1, SNAP protein tags (Homo sapiens, UniProt P16455, A127T/A154D/C150Q/C62A/E30R/G131K/G132T/G153L/K125A/K32I/L33F/M134L/N157G/Q115S/Q116H/R128A/R135S/S151G/S152D/S159E)", "T1 sequence (P16455 1-182 E30R/K32I/L33F/C62A/Q115S/Q116H/K125A/A127T/R128A/G131K/G132T/M134L/R135S/C150Q/S151G/S152D/G153L/A154D/N157G/S159E)": "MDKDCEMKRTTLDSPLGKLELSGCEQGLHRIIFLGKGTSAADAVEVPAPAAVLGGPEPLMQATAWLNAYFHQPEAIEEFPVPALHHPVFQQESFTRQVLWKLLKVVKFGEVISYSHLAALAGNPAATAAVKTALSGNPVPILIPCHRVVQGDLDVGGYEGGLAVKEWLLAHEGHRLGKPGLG", "assay": "Fluorescence activation of probe after incubation with corresponding protein tag (SNAP)", "assay_type": "biochemical", "settings": "probe 5 μM, protein tag 10 μM, 37° C., 1 hr", "method_in_brief": "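Probe (5 μM final) mixed with CLIP or SNAP protein tag (10 μM final) and incubated 1 hr at 37° C. Fluorescence intensity change measured by fluorescence spectrophotometer, with quantum yield of tag-bound probe determined.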"}, "[3]": {"system": "HeLa cells with stable expression of protein tags", "assay": "Labeling of HeLa cells expressing protein tags vs HeLa-WT cells, confocal imaging", "assay_type": "cell-based", "settings": "probe 5 μM, 37° C., 2 hrs", "protocol": "HeLa cells with stable expression of protein tags and HeLa-WT cells (HeLa primitive cells, with no protein tag expressed) were implanted in a 14 mm glass-bottom 96-well cell culture plate and stabilized for 10 hrs. Probes 1, 15, 21, 30, 56, 60, 63, 88 were added to the media, respectively and diluted to 5 μMs. The cells were incubated in a carbon dioxide incubator at 37° C. for 2 hrs, and then a Leica TPS-8 confocal microscopy was used to image the fluorescent changes of the labeled cells. […] However, for HeLa cells with protein tags expressed shown by group A in FIG. 12, strong fluorescent signals could be detected, which are nearly 300 times stronger."}, "HeLa cells": {"system": "HeLa cells", "assay": "Labeling of organelle-localized protein tags in HeLa cells without washing", "assay_type": "cell-based", "settings": "0.2 μM probe, 2 hrs, no washing", "text": "To verify that probes 1, 21, 48, 60, 66 and 77 can be used to label target proteins located by different organelles, HeLa cells were taken as an example to detect the effect of probes on labeling different subcellular proteins. HeLa cells were implanted 5000 cells per well in a 96-well glass-bottom cell culture plate. 14 hrs later, the cells were transfected with the plasmids encoding different organelle localized protein tags using Lipo2000; the original medium was removed 24 hrs after transfection, washed with a phenol-free red DMEM medium twice, and incubated with a phenol-free red medium containing 0.2 μM probes for 2 hrs, and then the cell labeling effects were detected by imaging with a leica TCS-8 confocal microscopy."}, "SNAP-IAA17-H2B protein": {"system": "SNAP-IAA17-H2B protein", "assay": "Fluorescence change on AID-induced degradation of SNAP-IAA17-H2B in HeLa cells", "assay_type": "cell-based", "settings": "1 μM probe; 120 min after indoleacetic acid", "text": "To verify the correlation between the fluorescent activation of the probe of the present invention and the existence of proteins, SNAP protein in mammalian cells was taken as an example, and the fluorescence changes of SNAP protein binding probes after protein degradation were detected in HeLa cells by taking AID degradation system as an example. Firstly, HeLa cells were implanted 20,000/cm^2 in a 20 mm glass-bottom cell culture dish, and 14 hrs later, plasmids pcdna3.1-TIR1 and pcdna3.1-SNAP-IAA17-H2B were transfected by invitrogen's lipofectmain2000 transfection reagent. 24 hrs after the cell transfection, the original cell culture medium was replaced with a phenol-free red DMEM medium containing 1 μM of probe 21 to label the cells. The cell samples were incubated in a carbon dioxide incubator at 37° C. for 1 hour. After the labeling was completed, the fluorescence signal of labeled cells was detected by imaging with a Leica SP8 laser confocal microscopy, and indoleacetic acid (IAA) was added to induce SNAP-IAA17-H2B protein to degrade, and the cell fluorescence changes were detected during the protein degradation. […] When proteins exist, the fluorescence is activated, and when proteins are degraded, the fluorescence disappears, which can be used to track and monitor the degradation process of target proteins."}, "fusion protein CX43-SNAP": {"system": "fusion protein CX43-SNAP", "assay": "Tracing assembly of CX43-SNAP intercellular channels in HeLa cells", "assay_type": "cell-based", "settings": "probe 21 2 μM 1 hour first, then probe 1 1 μM", "text": "To verify that the probe of the present invention can be used to monitor the assembly and degradation process of biological macromolecules in mammalian cells in real time, the process of tracing the assembly of intercellular protein CX43 to form intercellular channels in mammalian cells by the probe was detected by taking HeLa cells as an example. The C-terminal of CX43 gene was fused with SNAP gene, and HeLa cell line with stable expression of fusion protein CX43-SNAP was constructed and obtained by lentivirus infection technology. HeLa-CX43-SNAP cell lines were implanted in a 20 mm glass-bottom cell culture dish 10 hrs before the probe labeling. To conduct labeling, a phenol-free red DMEM medium was first used to dilute the probe 21 to 2 μM to replace the original cell culture medium. Cells were incubated in a carbon dioxide incubator at 37° C. for 1 hour. The cells were then washed twice using a fresh phenol-free red DMEM medium, with unbound probe 21 removed at 2-minute intervals. Then, DMEM phenol-free red culture medium containing 1 μM probe 1 was added to label cells. Leica SP8 confocal microscopy was used to monitor for a long time the fluorescence intensity and position changes of labeled cell samples at the corresponding fluorescence channels of probes 21 and 1, as shown in FIGS. 17A and 17B, respectively. […]"}}}
{"smiles": "CN(CCOC(=O)NCc1ccc(COc2nc(N)nc3[nH]cnc23)cc1)c1cc2sc(/C=C(\\C#N)C(=O)OC(C)(C)C)cc2s1", "note": "[probe 21]", "values": [{"measurement": "Emission wavelength", "setting": "[1]; excited at maximum excitation wavelength of each probe", "result": 555, "unit": "nm"}, {"measurement": "Fluorescence ratio in glycerol to methanol", "setting": "[1]; probe 1×10^−5 M", "result": 1481}, {"measurement": "Quantum yield of free probe", "setting": "[2]", "result": "<0.001"}, {"measurement": "Fluorescence activation multiple", "setting": "SNAP protein tags", "result": 560}, {"measurement": "Quantum yield of probe bound to protein tag", "setting": "SNAP protein tags", "result": 0.48}, {"measurement": "Fluorescence signal in HeLa-WT cells (no protein tag expressed)", "setting": "[3]", "result": "no corresponding fluorescence signal was detected"}, {"measurement": "Fluorescent signal in HeLa cells with protein tags expressed, relative to HeLa-WT", "setting": "[3]", "result": "~300", "unit": "times"}, {"measurement": "Labeling of subcellular organelle structures", "setting": "HeLa cells", "result": "clearly display a variety of subcellular organelle structures without washing"}, {"measurement": "Fluorescence signal after indoleacetic acid-induced protein degradation", "setting": "SNAP-IAA17-H2B protein", "result": "basically invisible"}, {"measurement": "Fluorescence signal at intercellular channels", "setting": "fusion protein CX43-SNAP", "result": "long-columnar specific fluorescence signal between two cells"}]}
